{
  "source": "patent US9316638B2",
  "about": "“Reagents for reducing leukocyte interference in immunoassays” (Abbott Point of Care Inc., priority 2010, dated 2016)",
  "key": {"leukocytes": {"test_system": "leukocytes", "experiment": "BNP immunoassay signal slope (AmpActSlope) as indicator of leukocyte interference in enriched buffy blood samples (EBS)", "type": "cell-based, human"}, "[1]": {"experiment": "glucose and oxygen concentrations in treated EBS samples (i-STAT CG8+ cartridges)", "type": "biochemical, human", "settings": "OX 4.0 IU per mL, Glu 700 mg/dL"}, "[2]": {"from_the_text": "While it is more common for a blood sample used in an immunoassay performed in a laboratory to be drawn from a vein, where point-of-care (or bedside, e.g. Emergency Room, Operating Room) testing is done, it is not uncommon for the sample to be drawn from an artery. […] To assess the impact of an arterial sample on the present assay, simulated arterial samples were generated and tested. […] Simulated samples were created with a tonometer using venous blood collected in an EDTA tube. The tonometer equilibrates the blood with a predetermined gas composition.\nNote these samples were not enriched as described above."}},
  "data": [
    {"substance": "glucose oxidase", "values": [
      {"measurement": "assayed samples with AmpActSlope below 0.05 nA per second", "setting": "leukocytes; EBS, OX 4.0 IU per mL, Glu 700 mg/dL, FIG. 26", "value": "9 out of 13"},
      {"measurement": "reduction in number of assays with slope above the desirable threshold", "setting": "leukocytes; addition of glucose oxidase, in general", "value": "about 90%"},
      {"measurement": "difference in assays beyond threshold, treated vs untreated", "setting": "leukocytes; treated 1.0% vs untreated 13.4%, FIG. 27", "value": 92.1, "unit": "%"},
      {"measurement": "assays beyond threshold (AmpActSlope <0.05 and >-0.03 nA per second, ParamActDoc max 8.0 nA)", "setting": "leukocytes; treated EBS+OX, N=287, 15 donors, FIG. 27", "value": 1.0, "unit": "%"},
      {"measurement": "glucose oxidase concentration in the sample found preferable", "setting": "leukocytes; venous samples", "value": "> 3", "unit": "IU per mL"},
      {"measurement": "glucose concentration after treatment", "setting": "[1]; OX+Glu from 700 after 50 minutes", "value": "below 20 mg/dL"},
      {"measurement": "oxygen concentration (PO2) after treatment", "setting": "[1]; initial about 200 mm Hg, OX+Glu value after 50 minutes", "value": "about 50 mm Hg"},
      {"measurement": "inhibition of phagocytosis in arterial blood", "setting": "[2]; glucose oxidase 6.0 IU and 12.0 IU per mL", "value": "sufficient to inhibit phagocytosis"},
      {"measurement": "partial pressure of oxygen in the sample", "setting": "[2]; simulated arterial blood, initial PO2 about 150 mm Hg, glucose oxidase 6.0 IU and 12.0 IU per mL", "value": "below 50 mm Hg"},
      {"measurement": "change in glucose and PO2", "setting": "[2]; tonometered whole blood, glucose oxidase 6 and 12 IU per mL, no added glucose", "value": "decreased glucose and PO2"}
    ]}
  ]
}
